From US10913738B2 (BRISTOL-MYERS SQUIBB COMPANY, priority 2017, dated 2021)
Read-outs that look alike come from different tables or passages of the source.

Key:
[1] = tested on: MLKL phosphorylation in HT29-L23 human colorectal adenocarcinoma cells; experiment: MLKL Phosphorylation High-Content Assay; assay type: cell-based; conditions: Homo sapiens
How it was run: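 IC50 and Ymax obtained by 4-parameter logistic fitting of MLKL phosphorylation, measured as mean circ-ring average intensity ratio from high-content images. Staining used an anti-phospho-S358 MLKL antibody overnight at 4° C., following six-hour cell incubation at 37° C.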

[2] = target: T1, His-GST-TVMV-hRIPK1(1-324) (Homo sapiens, UniProt Q13546); experiment: RIPK1 HTRF Binding Assay
T1 construct: The coding region of human RIPK1(1-324) flanked by NdeI site at 5′ end; made in house; host or cells: Spodoptera frugiperda (Sf9) insect cells, baculovirus
T1 sequence (Q13546 1-324): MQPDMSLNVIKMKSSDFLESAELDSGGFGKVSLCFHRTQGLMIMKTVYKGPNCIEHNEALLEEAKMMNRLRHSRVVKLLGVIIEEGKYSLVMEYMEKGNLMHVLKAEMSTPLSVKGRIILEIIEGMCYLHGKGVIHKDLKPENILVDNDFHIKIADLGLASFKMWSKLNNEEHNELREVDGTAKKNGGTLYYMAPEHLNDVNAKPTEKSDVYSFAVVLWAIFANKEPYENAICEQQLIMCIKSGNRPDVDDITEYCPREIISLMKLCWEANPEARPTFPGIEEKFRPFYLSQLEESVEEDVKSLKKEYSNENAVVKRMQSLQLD

[3] = x marks IC50 class <20 nM, read-out: pMLKL cell activity <20 nM
[4] = x marks IC50 class <20 nM, read-out: RIPK1 HTRF binding <20 nM
[5] = x marks IC50 class 20-200 nM, read-out: pMLKL cell activity 20-200 nM
[6] = x marks IC50 class >200 nM, read-out: pMLKL cell activity >200 nM
[7] = x marks IC50 class >200 nM, read-out: RIPK1 HTRF binding >200 nM
[8] = x marks IC50 class 20-200 nM, read-out: RIPK1 HTRF binding 20-200 nM

SMILES	IC50 [2, 4]	IC50 [1, 5]	further results
COc1nc(C)c(-c2ccn3nc(N)nc3c2)cc1C(=O)NCCC(C)c1ccccc1 (stereo not drawn) [Example 218, 5-{2-amino-[1,2,4]triazolo[1,5-a]pyridin-7-yl}-2-methoxy-6-methyl-N-(3-phenylbutyl)pyridine-3-carboxamide]	< 20 nM	–	IC50 [1, 3]: < 20 nM
Cc1nc(C)c(-c2ccn3nc(N)nc3c2)cc1C(=O)NCc1ccccc1OCC1CCCC1 [Example 186, 5-{2-amino-[1,2,4]triazolo[1,5-a]pyridin-7-yl}-N-{[2-(cyclopentylmethoxy)phenyl]methyl}-2,6-dimethylpyridine-3-carboxamide]	< 20 nM	20 to 200 nM	–
COc1ncc(-c2ccn3nc(N)nc3c2)cc1C(=O)NC(C)c1cccc(OC(F)(F)F)c1 (single isomer, unassigned) [Example 36-2, 5-{2-Amino-[1,2,4]triazolo[1,5-a]pyridin-7-yl}-2-methoxy-N-{1-[3-(trifluoromethoxy)phenyl]ethyl}pyridine-3-carboxamide]	–	–	IC50 [1, 6]: > 200 nM; IC50 [2, 7]: > 200 nM
COc1nc(C)c(-c2ccn3nc(N)nc3c2)cc1C(=O)NCc1ccccc1OC(C)C [Example 212, 5-{2-amino-[1,2,4]triazolo[1,5-a]pyridin-7-yl}-2-methoxy-6-methyl-N-{[2-(propan-2-yloxy)phenyl]methyl}pyridine-3-carboxamide]	< 20 nM	–	IC50 [1, 3]: < 20 nM
COc1ncc(-c2ccn3nc(N)nc3c2)cc1C(=O)NCc1ccc(F)cc1OCC1CCCC1 [Example 130, 5-{2-amino-[1,2,4]triazolo[1,5-a]pyridin-7-yl}-N-{[2-(cyclopentylmethoxy)-4-fluorophenyl]methyl}-2-methoxypyridine-3-carboxamide]	< 20 nM	20 to 200 nM	–
COc1cnc(-c2ccn3nc(N)nc3c2)cc1C(=O)N[C@H](C)c1cc(OC(F)(F)F)ccc1F [Example 389, (R)-2-(2-amino-[1,2,4]triazolo[1,5-a]pyridin-7-yl)-N-(1-(2-fluoro-5-(trifluoromethoxy)phenyl)ethyl)-5-methoxyisonicotinamide]	–	–	IC50 [1, 6]: > 200 nM; IC50 [2, 8]: 20 to 200 nM
CCOc1ncc(-c2ccn3nc(N)nc3c2)cc1C(=O)NCCc1ccccc1Oc1ccccc1 [Example 269, 5-{2-amino-[1,2,4]triazolo[1,5-a]pyridin-7-yl}-2-ethoxy-N-[2-(2-phenoxyphenyl)ethyl]pyridine-3-carboxamide]	< 20 nM	20 to 200 nM	–
COc1ncc(-c2ccn3nc(N)nc3c2)cc1C(=O)NCc1ccccc1C(=O)N1CCC(F)(F)C1 [Example 377, 5-(2-amino-[1,2,4]triazolo[1,5-a]pyridin-7-yl)-N-(2-(3,3-difluoropyrrolidine-1-carbonyl)benzyl)-2-methoxynicotinamide]	–	20 to 200 nM	IC50 [2, 8]: 20 to 200 nM
[2H]C([2H])(NC(=O)c1cc(-c2ccn3nc(N)nc3c2)cnc1OC)c1cc(OC(F)(F)F)ccc1F [Example 87, 5-{2-amino-[1,2,4]triazolo[1,5-a]pyridin-7-yl}-N-{[2-fluoro-5-(trifluoromethoxy)phenyl] (deutero)methyl}-2-methoxypyridine-3-carboxamide]	< 20 nM	20 to 200 nM	–
CC(C)Oc1ccccc1CNC(=O)c1cc(-c2ccn3nc(N)nc3c2)cnc1N [Example 55, 2-Amino-5-{2-amino-[1,2,4]triazolo[1,5-a]pyridin-7-yl}-N-{[2-(propan-2-yloxy)phenyl]methyl}pyridine-3-carboxamide]	< 20 nM	20 to 200 nM	–
COc1ccccc1CNC(=O)c1cc(-c2ccn3nc(N)nc3c2)cnc1OC [Example 154, 5-{2-amino-[1,2,4]triazolo[1,5-a]pyridin-7-yl}-2-methoxy-N-[(2-methoxyphenyl)methyl]pyridine-3-carboxamide]	–	–	IC50 [1, 6]: > 200 nM; IC50 [2, 7]: > 200 nM
Nc1nc2cc(-c3cnc(Cl)c(C(=O)NCc4ccccc4OC4CCOC4)c3)ccn2n1 (stereo not drawn) [Example 165]	–	20 to 200 nM	IC50 [2, 8]: 20 to 200 nM
